Measurements from PMC7724566, “Prospects for Clinical Development of Stat5 Inhibitor IST5-002: High Transcriptomic Specificity in Prostate Cancer and Low Toxicity In Vivo” (Cancers, 2020).

Experiments:
[1] = tested on: Stat5; test: Ligand-induced Stat5 dimerization, two cell-based assays (summary); set-up: species or system human; conditions: read-out: IC50, suppression of ligand-induced Stat5 dimerization; both cell-based dimerization assays
From the text: Down-regulation of Stat5 phosphorylation by IST5 can theoretically be caused by IST5 blocking Stat5 monomer docking to the activated receptor-Jak2 complex (Figure 1) and/or by IST5 inhibition of Jak2 kinase activity. […] To further investigate whether IST5 is able to disrupt dimerization of Stat5 molecules, we employed two separate cell-based assays. […] Because both phosphorylation and dimerization of Stat5 were inhibited at similar concentrations of IST5, it is difficult to determine whether disruption of Stat5 dimerization by IST5 is caused by suppression of Stat5 phosphorylation or a direct effect of IST5 in hindering Stat5 dimer-formation or both events occurring at the same time in the cell. However, it is known that heteromolecular interactions are easier to disrupt than interactions between two Stat5 monomers implying that the primary mechanism of action of IST5 may be suppression of Stat5 docking to the receptor-kinase complex. It is important to note that bypassing tyrosine kinases responsible for Stat5 phosphorylation by utilizing direct Stat5 inhibitor would be advantageous for therapy development for Stat5-regulated cancers because targeting Stat5 directly is likely to cause less off-target side effects than targeting kinases or cell surface receptors.

[2] = tested on: patient-derived clinical PCs; set-up: method as in PMID 26026053, PMID 31548294; conditions: 3D tumor explant cultures; cited from earlier work
[3] = tested on: C57BL/6j mice; test: Sub-chronic toxicity study (10 days), hematology; format: in vivo; conditions: daily i.p. 10 days, blood
Procedure: The sub-chronic toxicity study (10 days) was carried out in C57BL/6J mice (8 weeks) (stock 000664) (n = 10/dose group 5 of each sex). IST5 was administered daily (0, 10, 30 and 100 mg/kg) via i.p. injection. Vehicle (0 mg/kg) group mice received a single i.p. injection of 0.3% hydroxypropyl cellulose. Plasma samples were analyzed for aspartate aminotransferase (AST), alanine aminotransferase (ALT), sorbitol dehydrogenase (SDH), alkaline phosphatase (ALP), γ-lutamyltransferase (GGT), lactate dehydrogenase (LDH), bilirubin (TBIL), protein (TP), glucose (GLU), blood urea nitrogen (BUN), creatinine (CREAT), and electrolytes (Na, K, Cl, Ca, CO2) (Marshfield Labs, WI, USA). A detailed hematological analysis was carried out on the sub-mandibular blood samples of mice collected at the end of the protocol and analyzed for white blood cells, red blood cells, hemoglobin, lymphocyte counts, monocytes, eosinophils and granulocytes. Brain, liver, heart, kidney and spleen were harvested, weighed and fixed in 10% buffered formalin and processed for histopathological analysis. In histopathological analysis, gross morphology and ultra-structural change were assessed. The clinical chemistry parameters measured were the same as those used for the acute toxicity study.

In the case of `O=P(O)(O)OCC1OC(n2cnc3c(NCc4ccccc4)ncnc32)C(O)C1O` (stereo not drawn) [IST5], the IC50 [1] is listed as 1000 to 1300 nM, the “apoptotic death in patient-derived clinical PCs ex vivo” value [2] is listed as “induce apoptotic death” and the EOS ([3]; 10 mg/kg) is listed as 3.88 ± 1.0%. It also gave a GRA ([3]; 10 mg/kg) of 25.9 ± 2.3%, an HGB ([3]; 10 mg/kg) of 19.8 ± 1.4 g/dL and an LYM ([3]; 10 mg/kg) of 67.8 ± 2.0%. The MON ([3]; 10 mg/kg) was 6.29 ± 0.75%, the PLT ([3]; 10 mg/kg) was 614 ± 119 10^3/µL and the RBC ([3]; 10 mg/kg) was 10.59 ± 0.2 M/uL. The WBC ([3]; 10 mg/kg) was 4.18 ± 0.65 K/uL, the EOS ([3]; 30 mg/kg) was 5.29 ± 1.35% and the GRA ([3]; 30 mg/kg) was 29.7 ± 6.7%. The HGB ([3]; 30 mg/kg) was 18.2 ± 2.5 g/dL, the LYM ([3]; 30 mg/kg) was 63.23 ± 6.7% and the MON ([3]; 30 mg/kg) was 7.06 ± 0.5%. The PLT ([3]; 30 mg/kg) was 553 ± 154 10^3/µL, the RBC ([3]; 30 mg/kg) was 9.61 ± 0.31 M/uL and the WBC ([3]; 30 mg/kg) was 3.76 ± 0.55 K/uL.
